Assay results reported in ChEMBL document CHEMBL5137082, “Discovery of a Novel Vascular Disrupting Agent Inhibiting Tubulin Polymerization and HDACs with Potent Antitumor Effects” (J Med Chem, 2022).
Activity calls are given as the source filed them. No cut-off for these calls is given here.

Test system: K562
Experiment: cells
Assay type: functional, cell-based
Conditions: Homo sapiens, K562, 72 h
Description: Antiproliferative activity against human K562 cells assessed as inhibition of cell growth measured after 72 hrs by MTT assay

IC50	SMILES
1500 nM	COc1ccc(CNC(=O)c2cc(F)ccc2N2CCOCC2)cc1OCCCCCCC(=O)NO
2000 nM	COc1ccc(CNC(=O)c2cc(F)ccc2N2CCOCC2)c(/C=C/C(=O)NO)c1
1040 nM	COc1ccc(CNC(=O)c2cc(F)ccc2N2CCOCC2)cc1OCCCC(=O)NO
> 2000 nM	COc1cc(CNC(=O)c2cc(F)ccc2N2CCOCC2)ccc1CCC(=O)NO
> 2000 nM	COc1ccc(CNC(=O)c2cc(OCCCCCCC(=O)NO)ccc2N2CCOCC2)cc1O
61 nM	COc1ccc(CNC(=O)c2cc(F)ccc2N2CCOCC2)cc1OCC(=O)NO
> 2000 nM	COc1ccc(CNC(=O)c2cc(C#CCCC(=O)NO)ccc2N2CCOCC2)cc1O
1060 nM	COc1ccc(CNC(=O)c2cc(F)ccc2N2CCOCC2)c(CCC(=O)NO)c1
285 nM	O=C(/C=C/c1cc(CNC(=O)c2cc(F)ccc2N2CCOCC2)ccc1O)NO
> 2000 nM	COc1ccc(CNC(=O)c2cc(C#CCCCCC(=O)NO)ccc2N2CCOCC2)cc1O
1660 nM	COc1cc(/C=C/C(=O)NO)ccc1CNC(=O)c1cc(F)ccc1N1CCOCC1
> 2000 nM	COc1ccc(CNC(=O)c2cc(F)ccc2N2CCOCC2)cc1C(=O)Nc1ccccc1N
> 2000 nM	COc1ccc(CNC(=O)c2cc(OCC(=O)NO)ccc2N2CCOCC2)cc1O
1970 nM	COc1cc(CNC(=O)c2cc(F)ccc2N2CCOCC2)ccc1/C=C/C(=O)NO
354 nM	COc1ccc(CNC(=O)c2cc(F)ccc2N2CCOCC2)cc1C#CCCC(=O)NO
664 nM	O=C(/C=C/c1cccc(CNC(=O)c2cc(F)ccc2N2CCOCC2)c1)NO
17 nM	COc1ccc(CNC(=O)c2cc(F)ccc2N2CCOCC2)cc1O
114 nM	COc1ccc(CNC(=O)c2cc(C(=O)Nc3ccccc3N)ccc2N2CCOCC2)cc1O
921 nM	COc1ccc(CNC(=O)c2cc(F)ccc2N2CCOCC2)cc1C#CCCCCC(=O)NO
> 2000 nM	COc1ccc(CNC(=O)c2cc(OCCCC(=O)NO)ccc2N2CCOCC2)cc1O
> 2000 nM	COc1ccc(CNC(=O)c2cc(C(=O)NO)ccc2N2CCOCC2)cc1O
> 2000 nM	COc1ccc(CNC(=O)c2cc(F)ccc2N2CCOCC2)cc1CCC(=O)NO
1030 nM	COc1ccc(CNC(=O)c2cc(F)ccc2N2CCOCC2)cc1C(=O)NO
> 2000 nM	COc1cc(CCC(=O)NO)ccc1CNC(=O)c1cc(F)ccc1N1CCOCC1
> 2000 nM	COc1ccc(CNC(=O)c2cc(/C=C/C(=O)NO)ccc2N2CCOCC2)cc1O

Test system: HepG2
Experiment: Antiproliferative activity against human HepG2 cells assessed as inhibition of cell growth measured after 72 hrs by MTT assay
Assay type: functional, cell-based
Conditions: HepG2, 72 h

IC50	SMILES
114 nM	COc1ccc(CNC(=O)c2cc(F)ccc2N2CCOCC2)cc1OCC(=O)NO
700 nM	O=C(/C=C/c1cc(CNC(=O)c2cc(F)ccc2N2CCOCC2)ccc1O)NO
27 nM	COc1ccc(CNC(=O)c2cc(F)ccc2N2CCOCC2)cc1O
97 nM	COc1ccc(CNC(=O)c2cc(C(=O)Nc3ccccc3N)ccc2N2CCOCC2)cc1O

Test system: HCT-116
Experiment: Antiproliferative activity against human HCT-116 cells assessed as inhibition of cell growth measured after 72 hrs by MTT assay
Assay type: functional, cell-based
Conditions: HCT-116, 72 h

IC50	SMILES
105 nM	COc1ccc(CNC(=O)c2cc(F)ccc2N2CCOCC2)cc1OCC(=O)NO
823 nM	O=C(/C=C/c1cc(CNC(=O)c2cc(F)ccc2N2CCOCC2)ccc1O)NO
29 nM	COc1ccc(CNC(=O)c2cc(F)ccc2N2CCOCC2)cc1O
77 nM	COc1ccc(CNC(=O)c2cc(C(=O)Nc3ccccc3N)ccc2N2CCOCC2)cc1O

Test system: MDA-MB-231
Experiment: Antiproliferative activity against human MDA-MB-231 cells assessed as inhibition of cell growth measured after 72 hrs by MTT assay
Assay type: functional, cell-based
Conditions: MDA-MB-231, 72 h

IC50	SMILES
104 nM	COc1ccc(CNC(=O)c2cc(F)ccc2N2CCOCC2)cc1OCC(=O)NO
642 nM	O=C(/C=C/c1cc(CNC(=O)c2cc(F)ccc2N2CCOCC2)ccc1O)NO
26 nM	COc1ccc(CNC(=O)c2cc(F)ccc2N2CCOCC2)cc1O
101 nM	COc1ccc(CNC(=O)c2cc(C(=O)Nc3ccccc3N)ccc2N2CCOCC2)cc1O

Test system: H22
Experiment: Antiproliferative activity against mouse H22 cells assessed as inhibition of cell growth measured after 72 hrs by MTT assay
Assay type: functional, cell-based
Conditions: H22, 72 h

SMILES	IC50
COc1ccc(CNC(=O)c2cc(F)ccc2N2CCOCC2)cc1OCC(=O)NO	95 nM
O=C(/C=C/c1cc(CNC(=O)c2cc(F)ccc2N2CCOCC2)ccc1O)NO	733 nM
COc1ccc(CNC(=O)c2cc(F)ccc2N2CCOCC2)cc1O	29 nM
COc1ccc(CNC(=O)c2cc(C(=O)Nc3ccccc3N)ccc2N2CCOCC2)cc1O	96 nM

Test system: MCF7
Experiment: Antiproliferative activity against human MCF7 cells assessed as inhibition of cell growth measured after 72 hrs by MTT assay
Assay type: functional, cell-based
Conditions: MCF7, 72 h

IC50	SMILES
124 nM	COc1ccc(CNC(=O)c2cc(F)ccc2N2CCOCC2)cc1OCC(=O)NO
775 nM	O=C(/C=C/c1cc(CNC(=O)c2cc(F)ccc2N2CCOCC2)ccc1O)NO
32 nM	COc1ccc(CNC(=O)c2cc(F)ccc2N2CCOCC2)cc1O
105 nM	COc1ccc(CNC(=O)c2cc(C(=O)Nc3ccccc3N)ccc2N2CCOCC2)cc1O

Test system: not listed separately
Experiment: Antiproliferative activity against human HFL1 cells assessed as inhibition of cell growth measured after 72 hrs by MTT assay
Assay type: toxicity, cell-based
Conditions: not given

SMILES	IC50 at 72 h
COc1ccc(CNC(=O)c2cc(F)ccc2N2CCOCC2)cc1OCC(=O)NO	495 nM
O=C(/C=C/c1cc(CNC(=O)c2cc(F)ccc2N2CCOCC2)ccc1O)NO	3260 nM
COc1ccc(CNC(=O)c2cc(F)ccc2N2CCOCC2)cc1O	126 nM
COc1ccc(CNC(=O)c2cc(C(=O)Nc3ccccc3N)ccc2N2CCOCC2)cc1O	323 nM

Biological target: Histone deacetylase 1 (Homo sapiens, UniProt Q13547)
Experiment: Inhibition of HDAC1 in human HeLa cells using BOC-K(Ac)-AMC as substrate measured after 30 mins by fluorescence based microtiter plate reader assay
Assay type: cell-based
Conditions: not given

Chain of Histone deacetylase 1 (Q13547 whole entry): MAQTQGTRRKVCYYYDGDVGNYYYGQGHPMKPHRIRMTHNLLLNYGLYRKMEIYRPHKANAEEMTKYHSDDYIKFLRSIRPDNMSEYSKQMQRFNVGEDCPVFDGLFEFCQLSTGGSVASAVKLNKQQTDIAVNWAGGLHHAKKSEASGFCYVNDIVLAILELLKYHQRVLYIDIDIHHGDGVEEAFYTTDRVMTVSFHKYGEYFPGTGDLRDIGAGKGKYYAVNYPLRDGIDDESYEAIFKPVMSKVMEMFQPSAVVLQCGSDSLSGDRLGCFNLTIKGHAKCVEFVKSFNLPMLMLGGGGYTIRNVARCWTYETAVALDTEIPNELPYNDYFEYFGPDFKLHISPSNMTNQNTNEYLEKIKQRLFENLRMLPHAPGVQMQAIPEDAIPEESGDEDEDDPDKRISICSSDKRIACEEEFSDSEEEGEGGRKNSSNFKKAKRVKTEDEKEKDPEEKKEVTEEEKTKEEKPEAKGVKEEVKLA

IC50	SMILES
8.86 µM	COc1ccc(CNC(=O)c2cc(F)ccc2N2CCOCC2)cc1OCC(=O)NO
16.5 µM	COc1ccc(CNC(=O)c2cc(C(=O)Nc3ccccc3N)ccc2N2CCOCC2)cc1O

Biological target: Histone deacetylase 2 (Homo sapiens, UniProt Q92769)
Experiment: Inhibition of HDAC2 in human HeLa cells using BOC-K(Ac)-AMC as substrate measured after 30 mins by fluorescence based microtiter plate reader assay
Assay type: cell-based
Conditions: not given

Chain of Histone deacetylase 2 (Q92769 whole entry): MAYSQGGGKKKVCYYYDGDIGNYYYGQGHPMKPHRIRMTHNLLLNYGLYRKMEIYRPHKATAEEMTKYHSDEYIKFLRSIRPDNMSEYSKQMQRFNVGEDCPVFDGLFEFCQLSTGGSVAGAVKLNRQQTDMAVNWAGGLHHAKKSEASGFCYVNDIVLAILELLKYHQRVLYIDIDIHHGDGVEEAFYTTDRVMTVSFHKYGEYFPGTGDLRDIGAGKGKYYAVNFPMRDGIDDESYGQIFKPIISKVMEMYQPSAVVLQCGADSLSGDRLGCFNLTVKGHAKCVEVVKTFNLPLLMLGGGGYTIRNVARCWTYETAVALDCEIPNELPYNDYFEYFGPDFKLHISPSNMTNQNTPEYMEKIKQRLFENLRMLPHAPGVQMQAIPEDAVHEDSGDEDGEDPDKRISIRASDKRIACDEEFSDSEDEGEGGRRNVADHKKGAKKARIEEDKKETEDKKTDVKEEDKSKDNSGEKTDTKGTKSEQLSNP

IC50	SMILES
6.72 µM	COc1ccc(CNC(=O)c2cc(F)ccc2N2CCOCC2)cc1OCC(=O)NO
28 µM	COc1ccc(CNC(=O)c2cc(C(=O)Nc3ccccc3N)ccc2N2CCOCC2)cc1O

Biological target: Histone deacetylase 3 (Homo sapiens, UniProt O15379)
Experiment: Inhibition of HDAC3 in human HeLa cells using BOC-K(Ac)-AMC as substrate measured after 30 mins by fluorescence based microtiter plate reader assay
Assay type: cell-based
Conditions: not given

Chain of Histone deacetylase 3 (O15379 whole entry): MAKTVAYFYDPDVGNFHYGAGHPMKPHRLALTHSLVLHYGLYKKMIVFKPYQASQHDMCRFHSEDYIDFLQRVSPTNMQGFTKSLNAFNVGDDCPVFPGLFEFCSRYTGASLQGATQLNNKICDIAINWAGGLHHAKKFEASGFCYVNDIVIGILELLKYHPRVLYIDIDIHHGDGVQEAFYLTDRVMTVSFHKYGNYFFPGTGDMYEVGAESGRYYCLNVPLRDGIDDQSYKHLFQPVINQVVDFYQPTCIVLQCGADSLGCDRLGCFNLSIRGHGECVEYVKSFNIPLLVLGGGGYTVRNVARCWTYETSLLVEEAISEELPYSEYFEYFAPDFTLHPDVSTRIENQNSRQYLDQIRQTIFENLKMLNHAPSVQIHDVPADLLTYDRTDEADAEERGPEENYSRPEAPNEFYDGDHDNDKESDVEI

IC50	SMILES
3250 nM	COc1ccc(CNC(=O)c2cc(F)ccc2N2CCOCC2)cc1OCC(=O)NO
530 nM	COc1ccc(CNC(=O)c2cc(C(=O)Nc3ccccc3N)ccc2N2CCOCC2)cc1O

Biological target: T1, Protein deacetylase HDAC6 (Homo sapiens, UniProt Q9UBN7)
T1 sequence (Q9UBN7 whole entry): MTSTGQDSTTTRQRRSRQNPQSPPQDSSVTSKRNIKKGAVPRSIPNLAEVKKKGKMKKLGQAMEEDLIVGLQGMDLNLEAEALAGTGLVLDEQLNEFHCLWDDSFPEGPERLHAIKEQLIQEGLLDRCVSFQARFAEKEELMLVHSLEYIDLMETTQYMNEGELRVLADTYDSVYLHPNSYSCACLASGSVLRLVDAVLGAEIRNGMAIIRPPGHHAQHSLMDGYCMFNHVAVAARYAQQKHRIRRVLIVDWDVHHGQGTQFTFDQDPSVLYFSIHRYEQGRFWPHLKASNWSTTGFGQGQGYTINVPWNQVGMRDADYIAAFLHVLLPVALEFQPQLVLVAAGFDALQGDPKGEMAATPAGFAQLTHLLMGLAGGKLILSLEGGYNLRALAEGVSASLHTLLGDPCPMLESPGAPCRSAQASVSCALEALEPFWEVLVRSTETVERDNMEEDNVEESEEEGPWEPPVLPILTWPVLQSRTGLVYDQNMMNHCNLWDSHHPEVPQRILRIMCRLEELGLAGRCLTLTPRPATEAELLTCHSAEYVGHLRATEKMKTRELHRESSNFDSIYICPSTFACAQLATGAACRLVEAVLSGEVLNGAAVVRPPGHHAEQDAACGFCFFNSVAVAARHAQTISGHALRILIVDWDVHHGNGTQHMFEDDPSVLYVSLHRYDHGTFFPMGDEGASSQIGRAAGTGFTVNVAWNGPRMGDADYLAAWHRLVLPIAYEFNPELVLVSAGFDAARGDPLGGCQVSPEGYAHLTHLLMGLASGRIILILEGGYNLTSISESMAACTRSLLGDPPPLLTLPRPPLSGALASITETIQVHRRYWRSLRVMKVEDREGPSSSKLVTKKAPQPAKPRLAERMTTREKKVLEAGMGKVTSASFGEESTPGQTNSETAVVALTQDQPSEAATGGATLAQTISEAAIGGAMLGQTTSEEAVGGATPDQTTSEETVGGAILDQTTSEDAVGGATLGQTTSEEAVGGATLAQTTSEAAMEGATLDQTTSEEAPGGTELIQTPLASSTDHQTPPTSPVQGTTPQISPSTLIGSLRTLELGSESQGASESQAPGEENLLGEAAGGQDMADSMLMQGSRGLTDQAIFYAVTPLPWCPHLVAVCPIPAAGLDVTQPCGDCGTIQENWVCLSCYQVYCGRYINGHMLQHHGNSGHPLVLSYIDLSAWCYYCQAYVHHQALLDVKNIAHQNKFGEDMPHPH
Experiment: Inhibition of HDAC6 in human HeLa cells using BOC-K(Ac)-AMC as substrate measured after 30 mins by fluorescence based microtiter plate reader assay
Assay type: cell-based
Conditions: not given

IC50	SMILES
2420 nM	COc1ccc(CNC(=O)c2cc(F)ccc2N2CCOCC2)cc1OCC(=O)NO
668 nM	COc1ccc(CNC(=O)c2cc(C(=O)Nc3ccccc3N)ccc2N2CCOCC2)cc1O

Biological target: T2, Histone deacetylase 8 (Homo sapiens, UniProt Q9BY41)
T2 sequence (Q9BY41 whole entry): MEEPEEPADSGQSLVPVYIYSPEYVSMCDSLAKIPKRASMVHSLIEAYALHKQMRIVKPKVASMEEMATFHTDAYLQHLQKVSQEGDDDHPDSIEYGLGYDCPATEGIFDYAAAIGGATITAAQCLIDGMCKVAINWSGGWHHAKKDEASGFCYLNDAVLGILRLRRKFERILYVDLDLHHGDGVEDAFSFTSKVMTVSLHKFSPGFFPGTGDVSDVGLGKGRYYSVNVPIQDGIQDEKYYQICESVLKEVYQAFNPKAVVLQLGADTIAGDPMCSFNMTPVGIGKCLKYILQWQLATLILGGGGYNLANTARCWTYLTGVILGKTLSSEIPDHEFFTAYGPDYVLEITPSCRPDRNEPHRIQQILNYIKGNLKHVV
Experiment: Inhibition of HDAC8 in human HeLa cells using BOC-K(Ac)-AMC as substrate measured after 30 mins by fluorescence based microtiter plate reader assay
Assay type: cell-based
Conditions: not given

IC50	SMILES
16.5 µM	COc1ccc(CNC(=O)c2cc(F)ccc2N2CCOCC2)cc1OCC(=O)NO
2.24 µM	COc1ccc(CNC(=O)c2cc(C(=O)Nc3ccccc3N)ccc2N2CCOCC2)cc1O

Test system: HUVEC
Experiment: Antivascular activity against HUVEC cells assessed as inhibition of capillary-like tubule formation at 30 nM measured after 6 hrs by inverted microscopy
Assay type: functional, cell-based
Conditions: Homo sapiens

SMILES	Activity
COc1ccc(CNC(=O)c2cc(F)ccc2N2CCOCC2)cc1O	Active

Test system: H22
Experiment: Antitumor activity against mouse H22 cells allografted in ICR mouse assessed as reduction in tumor weight at 20 mg/kg, iv administered qd measured after 21 days
Assay type: functional
Design: scale not given: the % may be the effect or the level left
Conditions: time 21 day

SMILES	Activity
COc1ccc(CNC(=O)c2cc(F)ccc2N2CCOCC2)cc1O	74%

Test system: H22
Experiment: Antitumor activity against mouse H22 cells allografted in ICR mouse assessed as reduction in tumor weight at 25 mg/kg, ip administered qd measured after 21 days
Assay type: functional
Design: scale not given: the % may be the effect or the level left
Conditions: time 21 day

SMILES	Activity
O=C(CCCCCCC(=O)Nc1ccccc1)NO [VORINOSTAT]	61%

Test system: H22
Experiment: Antivascular activity against mouse H22 cells allografted in ICR mouse assessed as reduction in tumor microvessel density by measuring CD31-positive cells at 20 mg/kg, iv administered qd measured after 21 days by immunohistochemistry analysis
Assay type: functional, organism-based
Conditions: time 21.0 day

SMILES	Activity
COc1ccc(CNC(=O)c2cc(F)ccc2N2CCOCC2)cc1O	Active

Test system: H22
Experiment: Antivascular activity against mouse H22 cells allografted in ICR mouse assessed as inhibition of blood vessel formation at 20 mg/kg, iv administered qd measured after 21 days by immunohistochemistry analysis
Assay type: functional, organism-based
Conditions: time 21.0 day

SMILES	Activity
COc1ccc(CNC(=O)c2cc(F)ccc2N2CCOCC2)cc1O	Active
